Measured values published in patent US9149044B2, “Pesticidal compositions” (Syngenta Participations AG, priority 2011, dated 2015).

Tested on: Heterodera glycines race 3
Experiment: Soybean pot test, cyst count as indicator of nematode control
Format: in vivo
Conditions: 28 days after planting
Excerpt: A plug measuring 0.75 inch (approximately 1.9 cm) in diameter and 1 inch (approx. 2.5 cm) in depth was removed from each 3 inch diameter×8 inch deep (approx. 7.6×20 cm) plastic pot. Five thousand Heterodera glycines race 3 eggs were placed at the bottom of the plug hole. A soybean variety 3.6-B6 seed was placed on top of the inoculum. Six replicates were made for each treatment group. In addition to untreated control, the treatment groups were Pasteuria nishizawae, Bacillus firmus, and Pasteuria nishizawae+Bacillus firmus.
Bacillus firmus came applied as a seed treatment (available commercially, for example, from Bayer Crop Science as VOTIVO product, PONCHO/VOTIVO, having Bacillus firmus concentration at least 2×10^9 cfu/ml+clothianidin (0.13 mg/seed)). A point application containing Pasteuria nishizawae (approximately 5.0×10^9 spores) was applied directly to the seed in the pot. The plug was replaced in the hole to cover the seed. The soil was Vero Beach (Florida, USA) top soil, pH 5.9 (approximate composition sand 93%, silt 2%, clay 2%, organic matter 3%).
At 28 days after planting, plant height was measured and plants were removed from the pots. Soil was gently rinsed from the roots. The rinsed roots were placed in a 20 mesh over a 60 mesh sieve. The root system was blasted with water to remove cyst nematode females. The 20 mesh sieve was removed and the cysts were washed to the bottom of the 60 mesh sieve. The cysts were rinsed into a tube for counting under a stereoscope. Later the dry root weights were measured.

Pasteuria nishizawae
Average Cyst Count (5000 eggs per pot, average of six replicates): 366
Cyst Count (5000 eggs per pot, cysts washed from roots, average of six replicates): 366
% Control Observed (from cyst count versus untreated control): 2.40%
